Measurements taken from patent publication EP4483954A1 (Masarykova Univerzita, priority 2023, dated 2025).

Experiments:
Format in all cases: biochemical
CDKL3(h) = target: T1, CDKL3(h) (Homo sapiens, UniProt Q8IVW4); experiment: radiometric kinase assay (KinaseProfiler, Eurofins), CDKL3; conditions: in vitro radiometric kinase assay, tested at 1 nM to 10 000 nM, no pre-incubation; read-out: inhibitory activities (IC50 values) CDKL3
T1 construct: purchased Eurofins (KinaseProfiler)
Experimental: (§1) The compounds were profiled in the radiometric assays (KinaseProfiler, Eurofins).
(§2) Briefly, kinases were diluted in the buffer shown below prior to addition to the reaction mix: • CDKL3, TAF1L: 20 mM Tris/HCl pH 8.5, 0.2 mM EDTA, 0.1% β-mercaptoethanol, 0.01% Brij-35, 5% glycerol, 1 mg/ml BSA; • Haspin: 15 mM MOPS, 0.75 mM EDTA, 0.0075% Brij-35, 3.75% Glycerol, 150 mM NaCl, 0.1% β-mercaptoethanol, 1 mg/mLBSA; • CDKL4, CLK2, PIM1, TRB2: […], 1 mM EDTA, 0.01% Brij-35, 5% Glycerol, 0.1% β-mercaptoethanol, 1 mg/mL BSA.
(§3) All compounds were prepared to 50x final assay concentration in 100% DMSO. This working stock of the compound was added to the assay well as the first component in the reaction, followed by the remaining components as detailed in the general assay protocols below. There was no pre-incubation step between the compound and the kinase prior to initiation of the reaction.
(§4) CDKL3(h) was incubated with 8 mM MOPS pH 7.0, 0.2 mM EDTA, 250 µM RRRFRPASPLRGPPK (SEQ ID NO. 1), 10 mM magnesium acetate and γ-^33P-ATP (specific activity and concentration as required). The reaction was initiated by the addition of the Mg/ATP mix. After incubation for 120 minutes at room temperature, the reaction was stopped by the addition of phosphoric acid to a concentration of 0.5%. An aliquot of the stopped reaction was spotted onto a filter and washed four times for 4 minutes in 0.425% phosphoric acid and once in methanol prior to drying and scintillation counting.
(§5) Kinase activity data were expressed as the percent remaining kinase activity in tested samples compared to the vehicle (DMSO) reactions. The compounds were tested at the following concentrations: 1 nM, 3 nM, 10 nM, 30 nM, 100 nM, 300 nM, 1000 nM, 3000 nM, and 10 000 nM; IC50 values and curve fits were then obtained.

PIM1 (h) = target: T2, PIM1 (h) (Homo sapiens, UniProt P11309); experiment: radiometric kinase assay (KinaseProfiler, Eurofins), PIM1; conditions: in vitro radiometric kinase assay, tested at 1 nM to 10 000 nM, no pre-incubation; read-out: inhibitory activities (IC50 values) PIM1
T2 construct: purchased Eurofins (KinaseProfiler)
Experimental: as §1, §2, §3
(§6) PIM1 (h) was incubated with 8 mM MOPS pH 7.0, 0.2 mM EDTA, 100 µM KKRNRTLTV (SEQ ID NO. 4), 10 mM magnesium acetate and γ-^33P-ATP (specific activity and concentration as required). The reaction was initiated by the addition of the Mg/ATP mix. After incubation for 40 minutes at room temperature, the reaction was stopped by the addition of phosphoric acid to a concentration of 0.5%. An aliquot of the reaction was then spotted onto a filter and washed four times for 4 minutes in 0.425% phosphoric acid and once in methanol prior to drying and scintillation counting.
as §5

CDKL4(h) = target: T3, CDKL4(h) (Homo sapiens, UniProt Q5MAI5); experiment: radiometric kinase assay (KinaseProfiler, Eurofins), CDKL4; conditions: in vitro radiometric kinase assay, tested at 1 nM to 10 000 nM, no pre-incubation; read-out: inhibitory activities (IC50 values) CDKL4
T3 construct: purchased Eurofins (KinaseProfiler)
Experimental: as §1, §2, §3
as §4, with “CDKL4(h)” for “CDKL3(h)”
as §5

CLK2 (h) = target: T4, CLK2 (h) (Homo sapiens, UniProt P49760); experiment: radiometric kinase assay (KinaseProfiler, Eurofins), CLK2; conditions: in vitro radiometric kinase assay, tested at 1 nM to 10 000 nM, no pre-incubation; read-out: inhibitory activities (IC50 values) CLK2
T4 construct: purchased Eurofins (KinaseProfiler)
Experimental: as §1, §2, §3
as §6, with “CLK2” for “PIM1”, “20” for “100”, “[…](p)EDEEE” for “KKRNRTLTV”, “2),” for “4),”
as §5

TRB2(h) = target: T5, TRB2(h) (Homo sapiens, UniProt Q92519); experiment: radiometric kinase assay (KinaseProfiler, Eurofins), TRB2; conditions: in vitro radiometric kinase assay, tested at 1 nM to 10 000 nM, no pre-incubation; read-out: inhibitory activities (IC50 values) TRB2
T5 construct: purchased Eurofins (KinaseProfiler)
T5 sequence (Q92519 1-343): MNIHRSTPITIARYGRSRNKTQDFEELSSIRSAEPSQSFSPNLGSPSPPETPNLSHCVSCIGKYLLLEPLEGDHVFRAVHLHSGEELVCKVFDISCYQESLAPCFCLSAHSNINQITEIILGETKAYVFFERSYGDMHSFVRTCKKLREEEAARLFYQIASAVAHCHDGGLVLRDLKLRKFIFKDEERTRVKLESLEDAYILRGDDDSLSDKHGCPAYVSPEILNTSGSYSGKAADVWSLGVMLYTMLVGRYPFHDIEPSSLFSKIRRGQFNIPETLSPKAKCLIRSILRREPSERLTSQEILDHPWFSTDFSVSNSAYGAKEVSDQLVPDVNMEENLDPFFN
Experimental: as §1, §2, §3
as §4, with “TRB2(h)” for “CDKL3(h)”
as §5

T1 sequence (Q8IVW4 whole entry): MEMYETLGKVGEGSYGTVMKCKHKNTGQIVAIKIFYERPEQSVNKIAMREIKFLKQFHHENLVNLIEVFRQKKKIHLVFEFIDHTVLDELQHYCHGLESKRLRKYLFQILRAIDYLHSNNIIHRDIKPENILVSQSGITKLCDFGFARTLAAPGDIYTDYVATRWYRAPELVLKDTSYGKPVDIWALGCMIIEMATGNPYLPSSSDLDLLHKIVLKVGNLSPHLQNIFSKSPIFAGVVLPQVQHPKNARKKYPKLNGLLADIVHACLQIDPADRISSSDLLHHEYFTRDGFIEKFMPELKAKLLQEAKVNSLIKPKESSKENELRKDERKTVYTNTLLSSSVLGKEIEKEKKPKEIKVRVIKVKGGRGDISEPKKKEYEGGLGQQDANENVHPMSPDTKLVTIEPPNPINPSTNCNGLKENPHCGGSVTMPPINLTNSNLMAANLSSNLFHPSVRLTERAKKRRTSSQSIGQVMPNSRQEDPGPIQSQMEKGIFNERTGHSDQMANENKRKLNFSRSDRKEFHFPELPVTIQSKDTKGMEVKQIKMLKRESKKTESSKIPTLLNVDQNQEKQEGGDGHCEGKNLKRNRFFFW
T2 sequence (P11309 whole entry): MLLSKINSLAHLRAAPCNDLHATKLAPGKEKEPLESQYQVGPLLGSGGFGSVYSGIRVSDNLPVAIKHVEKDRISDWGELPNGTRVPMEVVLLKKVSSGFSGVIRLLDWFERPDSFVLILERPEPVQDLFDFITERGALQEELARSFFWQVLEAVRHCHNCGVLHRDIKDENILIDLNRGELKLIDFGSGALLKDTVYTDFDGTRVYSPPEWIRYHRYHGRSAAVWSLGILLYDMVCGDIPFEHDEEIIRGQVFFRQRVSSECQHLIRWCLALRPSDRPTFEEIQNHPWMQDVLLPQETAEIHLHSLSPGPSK
T4 sequence (P49760 whole entry): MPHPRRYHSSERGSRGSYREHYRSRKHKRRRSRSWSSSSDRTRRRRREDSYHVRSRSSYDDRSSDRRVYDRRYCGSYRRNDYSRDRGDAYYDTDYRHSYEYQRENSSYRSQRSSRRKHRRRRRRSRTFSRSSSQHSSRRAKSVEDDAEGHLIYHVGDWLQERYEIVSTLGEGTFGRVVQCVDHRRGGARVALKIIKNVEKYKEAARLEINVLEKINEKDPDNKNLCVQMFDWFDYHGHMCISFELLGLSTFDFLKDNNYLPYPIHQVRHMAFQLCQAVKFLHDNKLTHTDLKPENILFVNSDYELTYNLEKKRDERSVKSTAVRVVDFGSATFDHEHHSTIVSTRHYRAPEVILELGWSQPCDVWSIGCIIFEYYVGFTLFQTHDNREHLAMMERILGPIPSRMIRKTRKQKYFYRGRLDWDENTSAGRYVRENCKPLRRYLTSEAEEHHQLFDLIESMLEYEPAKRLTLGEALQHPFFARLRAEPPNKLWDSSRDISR
T3 sequence (Q5MAI5 whole entry): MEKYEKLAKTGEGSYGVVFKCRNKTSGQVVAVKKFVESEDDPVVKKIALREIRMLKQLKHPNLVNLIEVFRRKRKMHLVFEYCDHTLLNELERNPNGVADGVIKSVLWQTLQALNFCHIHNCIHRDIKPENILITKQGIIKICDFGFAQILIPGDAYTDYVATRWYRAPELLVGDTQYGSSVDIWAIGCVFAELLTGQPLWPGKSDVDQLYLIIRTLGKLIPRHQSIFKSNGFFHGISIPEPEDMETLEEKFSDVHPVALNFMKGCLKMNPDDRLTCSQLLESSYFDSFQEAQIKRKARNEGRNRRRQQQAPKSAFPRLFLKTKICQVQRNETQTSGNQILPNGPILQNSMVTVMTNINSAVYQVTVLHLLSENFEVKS

Compound	IC50 (CDKL3(h))	IC50 (PIM1 (h))	IC50 (CDKL4(h))	IC50 (CLK2 (h))	IC50 (TRB2(h))
Cn1cc(-c2ccc3scc(-c4cncs4)c3n2)cn1 [Preparative Example 69, 5-(1-methyl-1H-pyrazol-4-yl)-3-(thiazol-5-yl)thieno[3,2-b]pyridine]	100 to 499 nM	100 to 499 nM	100 to 499 nM	500 to 3000 nM	100 to 499 nM
Cc1nsc(-c2csc3ccc(-c4cnn(C)c4)nc23)n1 [Preparative Example 71, 3-(3-methyl-1,2,4-thiadiazol-5-yl)-5-(1-methyl-1H-pyrazol-4-yl)thieno[3,2-b]pyridine]	100 to 499 nM	100 to 499 nM	100 to 499 nM	500 to 3000 nM	100 to 499 nM
Cn1cc(-c2ccc3scc(C(=O)c4ccccc4)c3n2)cn1 [Preparative Example 73, (5-(1-methyl-1H-pyrazol-4-yl)thieno[3,2-b]pyridin-3-yl)(phenyl)-methanone]	3000 to 10000 nM	3000 to 10000 nM	3000 to 10000 nM	3000 to 10000 nM	3000 to 10000 nM
Cn1cc(-c2ccc3scc(C(O)c4ccccc4)c3n2)cn1 (stereo not drawn) [Preparative Example 74]	100 to 499 nM	500 to 3000 nM	100 to 499 nM	500 to 3000 nM	500 to 3000 nM
Cn1cc(-c2ccc3scc(Nc4ccccc4)c3n2)cn1 [Preparative Example 76, 5-(1-methyl-1H-pyrazol-4-yl)-N-phenylthieno[3,2-b]pyridin-3-amine]	20 to 99 nM	100 to 499 nM	20 to 99 nM	500 to 3000 nM	100 to 499 nM
CCn1cc(-c2ccc3scc(-c4ccncc4)c3n2)cn1 [Preparative Example 77, 5-(1-ethyl-1H-pyrazol-4-yl)-3-(pyridin-4-yl)thieno[3,2-b]pyridine]	500 to 3000 nM	500 to 3000 nM	500 to 3000 nM	3000 to 10000 nM	500 to 3000 nM
FC(F)(F)n1cc(-c2ccc3scc(-c4ccncc4)c3n2)cn1 [Preparative Example 78, 3-(pyridin-4-yl)-5-(1-(trifluoromethyl)-1H-pyrazol-4-yl)thieno[3,2-b]pyridine]	500 to 3000 nM	3000 to 10000 nM	500 to 3000 nM	3000 to 10000 nM	3000 to 10000 nM
CC(C)n1cc(-c2ccc3scc(-c4ccncc4)c3n2)cn1 [Preparative Example 79, 5-(1-isopropyl-1H-pyrazol-4-yl)-3-(pyridin-4-yl)thieno[3,2-b]pyridine]	3000 to 10000 nM	3000 to 10000 nM	3000 to 10000 nM	3000 to 10000 nM	500 to 3000 nM
c1ccc(Cn2cc(-c3ccc4scc(-c5ccncc5)c4n3)cn2)cc1 [Preparative Example 81, 5-(1-benzyl-1H-pyrazol-4-yl)-3-(pyridin-4-yl)thieno[3,2-b]pyridine]	500 to 3000 nM	100 to 499 nM	500 to 3000 nM	3000 to 10000 nM	3000 to 10000 nM
Cn1ncc(-c2ccc3scc(-c4ccncc4)c3n2)c1CC1CC1 [Preparative Example 82, 5-(5-(cyclopropylmethyl)-1-methyl-1H-pyrazol-4-yl)-3-(pyridin-4-yl)thieno[3,2-b]pyridine]	500 to 3000 nM	20 to 99 nM	500 to 3000 nM	500 to 3000 nM	100 to 499 nM
Cn1cc(-c2ccc3scc(-c4ccncc4)c3n2)c(NC(=O)OC(C)(C)C)n1 [Preparative Example 83, tert-butyl(1-methyl-4-(3-(pyridin-4-yl)thieno[3,2-b]pyridin-5-yl)-1H-pyrazol-3-yl)carbamate]	500 to 3000 nM	3000 to 10000 nM	500 to 3000 nM	3000 to 10000 nM	500 to 3000 nM
Cn1cc(-c2ccc3scc(-c4ccncc4)c3n2)c(N)n1 [Preparative Example 84, 1-methyl-4-(3-(pyridin-4-yl)thieno[3,2-b]pyridin-5-yl)-1H-pyrazol-3-amine]	500 to 3000 nM	3000 to 10000 nM	500 to 3000 nM	3000 to 10000 nM	500 to 3000 nM
